Laboratory results from patent US20260250289A1, “BICYCLIC HETEROCYCLES AND THEIR USE AS WRN INHIBITORS” (Novartis AG, priority 2022, published 2026).

Legend:
[1] = molecular target: T1, WRN helicase (aa N517-P1238) (Homo sapiens, UniProt Q14191); experiment: WRN ATPase assay (DNA dependent ATP hydrolysis, ADP-Glo); type: biochemical; conditions: 3 hours pre-incubation, 300 micromolar ATP, FLAP26 DNA; geometric mean of at least 2
T1 construct: The core helicase motif of the WRN protein (aa N517-P1238) was produced for this assay; His (N); ZZ (N); 3C protease cleavage site (N); made in house; host or cells: Sf21 insect cells (baculovirus; virus and BIICs made in SF9)
How it was run: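 DNA-dependent ATP hydrolysis detected as ADP by ADP-Glo luminescence, using 300 μM ATP, 0.2 nM FLAP26 substrate and 10 nM WRN aa N517-P1238 (Tris pH 7.5 buffer, 2 mM MgCl2, 50 mM NaCl). IC50s fitted from normalized duplicate half-log dilutions; reported as geometric means of at least 2 replicates.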

SW48 cells = experiment: Proliferation assay SW48 (CellTiterGlo); type: cell-based; conditions: Homo sapiens, SW48, 96 h, SW48 colon carcinoma cells, 96 hours, CellTiterGlo; geometric mean of at least 2; read-out: Proliferation Assay SW48 GI50
From the text: The colon carcinoma cell lines SW48 (RRID: CVCL_1724), HCT 116 (RRID: CVCL_0291) and SNU-407 (RRID: CVCL_5058) were obtained from ATCC. The WRN-knockdown insensitive colon carcinoma cell line DLD-1 (RRID: CVCL_0248) was obtained from the Korean Cell Line Bank (KCLB), and used to generate a derivative in which the endogenous WRN gene copies were knocked out by CRISPR-mediated editing using standard CRISPR methods. The resulting cell line, DLD1-WRN-KO, was used to assess potential off-target compound effects.
SW48, SNU-407 and DLD1-WRN-KO cells were cultured in growth medium composed of RPMI-1640 (Amimed Cat #1-41F22-1), 2 mM L-Glutamine (Amimed Cat #5-10K50), 10 mM HEPES (Gibco Cat #15630-056), 1 mM sodium pyruvate (Amimed Cat #5-60F00-H), 1× Penicillin-Streptomycin (Amimed Cat #4-01F00-H) and 10% fetal calf serum (Amimed Cat #2-01F30-G, Lot #LB11566P). HCT 116 cells were cultured in growth medium composed of McCoys 5A (Amimed catalog #1-18F01-1), 2 mM L-Glutamine (Amimed Cat #5-10K50), 1× Penicillin-Streptomycin (Amimed Cat #4-01F00-H) and 10% fetal calf serum (Amimed Cat #2-01F30-G, Lot #LB11566P). All cells were maintained at 37° C. in a humidified 5% CO2 incubator.
Following filtration through a Steriflip-NY 20 μm filter (Millipore Cat #SCNY00020), trypsinized cells were seeded in 100 microliters growth medium at 2,000 (SW48) or 1,500 (SNU-407, DLD1-WRN-KO, HCT 116) cells/well into white, clear-bottom 96-well plates (Costar Cat #3903). Three replicate plates were prepared for each compound treatment condition. In addition, one plate (termed “day 0”) was prepared to quantify the number of viable cells at the time of compound addition. Following overnight incubation at 37° C. in a humidified 5% CO2 atmosphere, eight 3-fold serial dilutions of a given compound stock (obtained at a concentration of 10 mM in DMSO and stored at 4° C.) were dispensed directly into each of the triplicate assay plates using a HP 300D non-contact Digital Dispenser (TECAN). The final concentration of DMSO was normalized to 0.1% in all wells. 96 hours after compound addition, cellular ATP levels as a surrogate for cell viability was assessed following addition of 50 microliters CellTiterGlo (Promega Cat #G7573) reagent and luminescence quantification on a MPLEX multi-mode plate-reader (TECAN) following a 10 minute incubation at room temperature. The number of viable cells in the “day 0” plate were quantified identically on the day of compound addition.
For data analysis, the assay background signal that was determined in wells containing medium, but no cells, was subtracted from all other data points prior to further calculations. The extent of growth inhibition and potential cell kill was assessed by comparing the ATP levels (measured using CellTiterGlo, Promega) in compound-treated cells with those present at the time of compound addition. To this end, the following conditional concept was programmatically applied in HELIOS, an in-house software applying a multi-step decision tree to arrive at optimal concentration response curve fits (Gubler et al, SLAS DOI: 10.1177/2472555217752140) to calculate % growth (% G) for each compound-treated well: % G=(T−V0)/V0))*100 when T<V0, and % G=(T−V0)/(V−V0)))*100 when T≥V0, where V0 is the viability level at time of compound addition, while V and T represent vehicle-control and compound-treated viability levels, respectively, at the end of the compound incubation. 100%, 0% and −100% signify absence of growth inhibition, growth stasis, and complete cell kill, respectively. Compound concentrations leading to half-maximal growth inhibition (GI50) and residual cell viability at the highest tested compound concentration (Data (cmax), expressed in percent) were routinely calculated. Data analysis can also be carried out using commercially available software designed to derive IC50 values using 4-parameter fits (e.g. GraphPad Prism, XL fit). […]

DLD1-WRN-KO cells = experiment: Proliferation assay DLD1-WRN-KO (CellTiterGlo, off-target effects); type: cell-based; conditions: 96 hours, geometric mean of at least 2
How it was run: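 DLD1 cells with CRISPR knockout of WRN were exposed overnight-seeded to eight 3-fold compound dilutions (0.1% DMSO) for 96 h at 37 °C. Viability was read as ATP by CellTiterGlo luminescence against a day-0 plate, giving GI50 and residual viability at top concentration.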

T1 sequence (Q14191 517-1238): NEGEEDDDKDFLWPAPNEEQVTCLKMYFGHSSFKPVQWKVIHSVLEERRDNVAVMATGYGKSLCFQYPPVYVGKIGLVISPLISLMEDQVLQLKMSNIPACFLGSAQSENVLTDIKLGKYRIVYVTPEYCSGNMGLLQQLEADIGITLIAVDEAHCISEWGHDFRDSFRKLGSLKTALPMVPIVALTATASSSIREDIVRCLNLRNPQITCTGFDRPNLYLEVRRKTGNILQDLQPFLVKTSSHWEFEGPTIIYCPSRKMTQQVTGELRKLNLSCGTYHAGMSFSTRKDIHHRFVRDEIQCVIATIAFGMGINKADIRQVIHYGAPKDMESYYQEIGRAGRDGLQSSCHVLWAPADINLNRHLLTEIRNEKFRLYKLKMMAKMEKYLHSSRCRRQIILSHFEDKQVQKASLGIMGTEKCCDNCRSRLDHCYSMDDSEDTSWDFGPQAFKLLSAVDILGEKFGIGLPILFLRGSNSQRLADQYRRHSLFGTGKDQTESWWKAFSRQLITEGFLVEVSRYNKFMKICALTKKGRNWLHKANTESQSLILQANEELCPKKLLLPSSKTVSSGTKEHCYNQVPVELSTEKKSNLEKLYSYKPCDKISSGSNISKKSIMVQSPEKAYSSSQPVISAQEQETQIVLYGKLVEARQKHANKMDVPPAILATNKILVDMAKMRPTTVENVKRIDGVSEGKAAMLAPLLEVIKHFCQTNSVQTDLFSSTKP

| Compound | IC50 [1] [nM] | GI50 (SW48 cells) [nM] | GI50 (DLD1-WRN-KO cells) [nM] |
| --- | --- | --- | --- |
| CCc1c(N2CCN(C(C)=O)CC2)c(=O)n2nc(C3=CCCCO3)nc2n1CC(=O)Nc1ccc(C(F)(F)F)cc1 [Example 57, 2-(6-(4-acetylpiperazin-1-yl)-2-(3,4-dihydro-2H-pyran-6-yl)-5-ethyl-7-oxo-[1,2,4]triazolo[1,5-a]pyrimidin-4(7H)-yl)-N-(4-(trifluoromethyl)phenyl)acetamide] | 100 | 1000 | > 10000 |
| CCc1c(N2CCN(C(=O)c3ccnc(C)c3O)CC2)c(=O)n2nc(C3=CCCCO3)nc2n1CC(=O)Nc1ccc(C(F)(F)F)cc1Cl [Example 23, N-(2-chloro-4-(trifluoromethyl)phenyl)-2-(2-(3,4-dihydro-2H-pyran-6-yl)-5-ethyl-6-(4-(3-hydroxy-2-methylisonicotinoyl)piperazin-1-yl)-7-oxo-[1,2,4]triazolo[1,5-a]pyrimidin-4(7H)-yl)acetamide] | 200 | 300 | > 10000 |
| CCc1c(C2CCN(C(C)=O)CC2)c(=O)n2nc(C3=CCCCO3)nc2n1CC(=O)Nc1ccc(C(F)(F)F)cc1 [Example 138, 2-(6-(1-acetylpiperidin-4-yl)-2-(3,4-dihydro-2H-pyran-6-yl)-5-ethyl-7-oxo-[1,2,4]triazolo[1,5-a]pyrimidin-4(7H)-yl)-N-(4-(trifluoromethyl)phenyl)acetamide] | 80 | 1000 | > 10000 |
| CC(=O)N1CCN(c2c(C)n(CC(=O)Nc3ccc(C(F)(F)F)c(F)c3C)c3nc(C4=CCOCC4)nn3c2=O)CC1 [Example 84, 2-(6-(4-acetylpiperazin-1-yl)-2-(3,6-dihydro-2H-pyran-4-yl)-5-methyl-7-oxo-[1,2,4]triazolo[1,5-a]pyrimidin-4(7H)-yl)-N-(3-fluoro-2-methyl-4-(trifluoromethyl)phenyl)acetamide] | 300 | 1000 | > 10000 |
| Cc1c(C2CCN(C(=O)c3c(F)ccc(F)c3O)CC2)c(=O)n2nc(C3=CCCCO3)nc2n1CC(=O)Nc1ccc(C(F)(F)F)cc1 [Example 137, 2-(6-(1-(3,6-difluoro-2-hydroxybenzoyl)piperidin-4-yl)-2-(3,4-dihydro-2H-pyran-6-yl)-5-methyl-7-oxo-[1,2,4]triazolo[1,5-a]pyrimidin-4(7H)-yl)-N-(4-(trifluoromethyl)phenyl) acetamide] | 50 | 300 | > 10000 |
| CCc1c(N2CCN(C(=O)c3cn(C)c(=O)[nH]3)CC2)c(=O)n2nc(C3=CCCC3)nc2n1CC(=O)Nc1ccc(C(F)(F)F)cc1 [Example 52, 2-(2-(cyclopent-1-en-1-yl)-5-ethyl-6-(4-(1-methyl-2-oxo-2,3-dihydro-1H-imidazole-4-carbonyl)piperazin-1-yl)-7-oxo-[1,2,4]triazolo[1,5-a]pyrimidin-4(7H)-yl)-N-(4-(trifluoromethyl)phenyl)acetamide] | 50 | 3000 | > 10000 |
| Cc1c(N2CCN(C(=O)c3c(O)cccc3O)CC2)c(=O)n2nc(C3=CCOCC3)nc2n1CC(=O)Nc1ccc(C(F)(F)F)cc1 [Example 15, 2-(2-(3,6-dihydro-2H-pyran-4-yl)-6-(4-(2,6-dihydroxybenzoyl)piperazin-1-yl)-5-methyl-7-oxo-[1,2,4]triazolo[1,5-a]pyrimidin-4(7H)-yl)-N-(4-(trifluoromethyl)phenyl)acetamide] | 50 | 4000 | > 10000 |
| CCc1c(N2CCN(C(=O)c3ccc(F)c(F)c3O)CC2)c(=O)n2nc(C3=CCCCO3)nc2n1CC(=O)Nc1ccc(C(F)(F)F)cc1 [Example 39, 2-(6-(4-(3,4-difluoro-2-hydroxybenzoyl)piperazin-1-yl)-2-(3,4-dihydro-2H-pyran-6-yl)-5-ethyl-7-oxo-[1,2,4]triazolo[1,5-a]pyrimidin-4(7H)-yl)-N-(4-(trifluoromethyl)phenyl)acetamide] | 30 | 300 | 4000 |
| Cc1c(N2CCN(C(=O)c3c(F)ccc(F)c3O)CC2)c(=O)n2nc(C3=CCOCC3)nc2n1CC(=O)Nc1ccc(C(F)(F)F)cc1 [Example 13, 2-(6-(4-(3,6-difluoro-2-hydroxybenzoyl)piperazin-1-yl)-2-(3,6-dihydro-2H-pyran-4-yl)-5-methyl-7-oxo-[1,2,4]triazolo[1,5-a]pyrimidin-4(7H)-yl)-N-(4-(trifluoromethyl)phenyl)acetamide] | 30 | 300 | > 10000 |
| Cc1c(N2CCN(C(=O)c3c(F)ccnc3O)CC2)c(=O)n2nc(C3=CCOCC3)nc2n1CC(=O)Nc1ccc(C(F)(F)F)cc1 [Example 28, 2-(2-(3,6-dihydro-2H-pyran-4-yl)-6-(4-(4-fluoro-2-hydroxynicotinoyl)piperazin-1-yl)-5-methyl-7-oxo-[1,2,4]triazolo[1,5-a]pyrimidin-4(7H)-yl)-N-(4-(trifluoromethyl)phenyl)acetamide] | 500 | > 10000 | > 10000 |
| CC(=O)N1CCN(c2c(C)n(CC(=O)Nc3ccc(C(F)(F)F)cc3)c3nc(C4=CCOCC4)nn3c2=O)CC1C (stereo not drawn) [Example 163, 2-(6-(4-acetyl-3-methylpiperazin-1-yl)-2-(3,6-dihydro-2H-pyran-4-yl)-5-methyl-7-oxo-[1,2,4]triazolo[1,5-a]pyrimidin-4(7H)-yl)-N-(4-(trifluoromethyl)phenyl)acetamide] | 1000 | 7000 | > 10000 |
| Cc1ccnc(O)c1C(=O)N1CCN(c2c(C)n(CC(=O)Nc3ccc(C(F)(F)F)cc3)c3nc(C4=CCOCC4)nn3c2=O)CC1 [Example 27, 2-(2-(3,6-dihydro-2H-pyran-4-yl)-6-(4-(2-hydroxy-4-methylnicotinoyl)piperazin-1-yl)-5-methyl-7-oxo-[1,2,4]triazolo[1,5-a]pyrimidin-4(7H)-yl)-N-(4-(trifluoromethyl)phenyl)acetamide] | 300 | > 10000 | > 10000 |
| CCc1c(N2CCN(C(=O)c3ncc(F)c4cc[nH]c34)CC2)c(=O)n2nc(C3=CCOCC3)nc2n1CC(=O)Nc1ccc(C(F)(F)F)cc1C [Example 51, 2-(2-(3,6-dihydro-2H-pyran-4-yl)-5-ethyl-6-(4-(4-fluoro-1H-pyrrolo[2,3-c]pyridine-7-carbonyl)piperazin-1-yl)-7-oxo-[1,2,4]triazolo[1,5-a]pyrimidin-4(7H)-yl)-N-(2-methyl-4-(trifluoromethyl)phenyl)acetamide] | 600 | 2000 | 7000 |
